Source: patent EP0384722A1, “Chemical compositions” (PITMAN-MOORE LIMITED, priority 1989, dated 1990)

Assay: Bioavailability in dogs of two injectable formulations (GF s/c, OS i/m) of Compound A and Sulphadimethoxine (serum levels)
Type: in vivo
Conditions: 30mg total a.i./kg
Procedure: GF = Solution in glycofurol of Compound A 2% w/v and sulphadimethoxine (SDM), 10% w/v; OS = Suspension in Miglyol 812 of Compound A, 2% w/v and SDM, 10% w/v
Six adult beagles (three male, three female, including Dogs 1 to 4 of Example 1) and six adult male cats, housed in Coopers' kennels were in all cases given a single injection at 30mg. total a.i./kg. bodyweight, i.e. 1ml./4kg. The glycofurol solution (GF) was injected s/c in the dorsal neck region and the oily suspension (OS) was injected i/m in the quadriceps (anterior thigh) muscles.
Blood samples (jugular venous samples or on some occasions from the cats, cephalic vein samples) were collected before and after injection at the times indicated in Tables 5 to 8).
A standard well-plate bio-assay method was used for Compound A, SDM being estimated by the Bratton-Marshall method. (The bio-assay method cannot distinguish between parent compound and any active metabolites present, but the results are expressed as mg/L Compound A).

- Serum concentrations of SDM (dog No.1, GF s/c, 0 hours p.i.): 0 µg/mL
- Serum concentrations of SDM (dog No.1, GF s/c, 1 hours p.i.): 82 µg/mL
- Serum concentrations of SDM (dog No.1, GF s/c, 4 hours p.i.): 95 µg/mL
- Serum concentrations of SDM (dog No.1, GF s/c, 7 hours p.i.): 99 µg/mL
- Serum concentrations of SDM (dog No.1, GF s/c, 24 hours p.i.): 47 µg/mL
- Serum concentrations of SDM (dog No.1, GF s/c, 28 hours p.i.): 34 µg/mL
- Serum concentrations of SDM (dog No.1, GF s/c, 31 hours p.i.): 30 µg/mL
- Serum concentrations of SDM (dog No.1, GF s/c, 48 hours p.i.): 24 µg/mL
- Serum concentrations of SDM (dog No.1, GF s/c, 55 hours p.i.): 17 µg/mL
- Serum concentrations of SDM (dog No.1, GF s/c, 72 hours p.i.): 14 µg/mL
- Serum concentrations of SDM (dog No.2, OS i/m, 0 hours p.i.): 0 µg/mL
- Serum concentrations of SDM (dog No.2, OS i/m, 1 hours p.i.): 5 µg/mL
- Serum concentrations of SDM (dog No.2, OS i/m, 4 hours p.i.): 23 µg/mL
- Serum concentrations of SDM (dog No.2, OS i/m, 7 hours p.i.): 35 µg/mL
- Serum concentrations of SDM (dog No.2, OS i/m, 24 hours p.i.): 34 µg/mL
- Serum concentrations of SDM (dog No.2, OS i/m, 28 hours p.i.): 31 µg/mL
- Serum concentrations of SDM (dog No.2, OS i/m, 31 hours p.i.): 29 µg/mL
- Serum concentrations of SDM (dog No.2, OS i/m, 48 hours p.i.): 35 µg/mL
- Serum concentrations of SDM (dog No.2, OS i/m, 55 hours p.i.): 27 µg/mL
- Serum concentrations of SDM (dog No.2, OS i/m, 72 hours p.i.): 6 µg/mL
- Serum concentrations of SDM (dog No.3, GF s/c, 0 hours p.i.): 0 µg/mL
- Serum concentrations of SDM (dog No.3, GF s/c, 1 hours p.i.): 21 µg/mL
- Serum concentrations of SDM (dog No.3, GF s/c, 4 hours p.i.): 90 µg/mL
- Serum concentrations of SDM (dog No.3, GF s/c, 7 hours p.i.): 99 µg/mL
- Serum concentrations of SDM (dog No.3, GF s/c, 24 hours p.i.): 51 µg/mL
- Serum concentrations of SDM (dog No.3, GF s/c, 28 hours p.i.): 40 µg/mL
- Serum concentrations of SDM (dog No.3, GF s/c, 31 hours p.i.): 30 µg/mL
- Serum concentrations of SDM (dog No.3, GF s/c, 48 hours p.i.): 19 µg/mL
- Serum concentrations of SDM (dog No.3, GF s/c, 55 hours p.i.): 12 µg/mL
- Serum concentrations of SDM (dog No.3, GF s/c, 72 hours p.i.): 21 µg/mL
- Serum concentrations of SDM (dog No.4, OS i/m, 0 hours p.i.): 0 µg/mL
- Serum concentrations of SDM (dog No.4, OS i/m, 1 hours p.i.): 7 µg/mL
- Serum concentrations of SDM (dog No.4, OS i/m, 4 hours p.i.): 26 µg/mL
- Serum concentrations of SDM (dog No.4, OS i/m, 7 hours p.i.): 36 µg/mL
- Serum concentrations of SDM (dog No.4, OS i/m, 24 hours p.i.): 38 µg/mL
- Serum concentrations of SDM (dog No.4, OS i/m, 28 hours p.i.): 37 µg/mL
- Serum concentrations of SDM (dog No.4, OS i/m, 31 hours p.i.): 35 µg/mL
- Serum concentrations of SDM (dog No.4, OS i/m, 48 hours p.i.): 26 µg/mL
- Serum concentrations of SDM (dog No.4, OS i/m, 55 hours p.i.): 19 µg/mL
- Serum concentrations of SDM (dog No.4, OS i/m, 72 hours p.i.): 10 µg/mL
- Serum concentrations of SDM (dog No.5, OS i/m, 0 hours p.i.): 0 µg/mL
- Serum concentrations of SDM (dog No.5, OS i/m, 1 hours p.i.): 12 µg/mL
- Serum concentrations of SDM (dog No.5, OS i/m, 4 hours p.i.): 43 µg/mL
- Serum concentrations of SDM (dog No.5, OS i/m, 7 hours p.i.): 53 µg/mL
- Serum concentrations of SDM (dog No.5, OS i/m, 24 hours p.i.): 42 µg/mL
- Serum concentrations of SDM (dog No.5, OS i/m, 28 hours p.i.): 41 µg/mL
- Serum concentrations of SDM (dog No.5, OS i/m, 31 hours p.i.): 43 µg/mL
- Serum concentrations of SDM (dog No.5, OS i/m, 48 hours p.i.): 34 µg/mL
- Serum concentrations of SDM (dog No.5, OS i/m, 55 hours p.i.): 25 µg/mL
- Serum concentrations of SDM (dog No.5, OS i/m, 72 hours p.i.): 20 µg/mL
- Serum concentrations of SDM (dog No.6, GF s/c, 0 hours p.i.): 0 µg/mL
- Serum concentrations of SDM (dog No.6, GF s/c, 1 hours p.i.): 26 µg/mL
- Serum concentrations of SDM (dog No.6, GF s/c, 4 hours p.i.): 79 µg/mL
- Serum concentrations of SDM (dog No.6, GF s/c, 7 hours p.i.): 94 µg/mL
- Serum concentrations of SDM (dog No.6, GF s/c, 24 hours p.i.): 56 µg/mL
- Serum concentrations of SDM (dog No.6, GF s/c, 28 hours p.i.): 47 µg/mL
- Serum concentrations of SDM (dog No.6, GF s/c, 31 hours p.i.): 45 µg/mL
- Serum concentrations of SDM (dog No.6, GF s/c, 48 hours p.i.): 34 µg/mL
- Serum concentrations of SDM (dog No.6, GF s/c, 55 hours p.i.): 21 µg/mL
- Serum concentrations of SDM (dog No.6, GF s/c, 72 hours p.i.): 10 µg/mL
Structure (SMILES): COc1cc(NS(=O)(=O)c2ccc(N)cc2)nc(OC)n1 [SDM, sulphadimethoxine]
